Measured values from patent publication US6287840A (Axys Pharmaceuticals, Inc., priority 1999, dated 2001).
Like-named read-outs stand apart in the source and are kept apart here.

Legend:
[1] = target: T1, Cathepsin L from rat liver (Rattus norvegicus, UniProt P07154); assay: Inhibition of cathepsin L, Z-Phe-Arg-AMC fluorescence progress curves; type: biochemical; details: for Ki: corrected for substrate; for kobs /[I]* (approximate second-order inactivation constant): values marked *; for kobs /[I]* (approximate second-order inactivation constant) / k/KI (kirr/KI): 25° C., pH 6.2; for k/KI (kirr/KI): values without asterisk
T1 construct: Cathepsin L from rat liver; from tissue; host or cells: rat liver
T1 sequence (P07154 114-288 limits assumed): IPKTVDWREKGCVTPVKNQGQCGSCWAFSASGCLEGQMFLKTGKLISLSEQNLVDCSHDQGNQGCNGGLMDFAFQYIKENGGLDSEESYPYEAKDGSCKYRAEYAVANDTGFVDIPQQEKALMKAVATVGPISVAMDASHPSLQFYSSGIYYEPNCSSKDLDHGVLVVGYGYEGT
T1 sequence (P07154 291-334 limits assumed): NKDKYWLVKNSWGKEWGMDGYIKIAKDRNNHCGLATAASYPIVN
How it was run: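 Progress curves of AMC release (380/460 nm) over at least 3 inactivation half-times were fitted to kobs, reported as kobs/[I] or, via 1/[I] vs 1/kobs, kirr, KI (substrate-corrected) and kirr/KI.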

[2] = system: mouse malarial parasite Plasmodium vinckei; assay: In vitro protease activity of malarial parasite, substrate Z-Phe-Arg-AMC; type: biochemical; details: cells printed in nM; read-out: P. vinckei IC50 (murine)
Source text: (§1) The following table summarizes the comparative IC50 values for selected cysteine protease inhibitors against the human malarial parasite Plasmodium falciparum and the mouse malarial parasite Plasmodium vinckei. The substrate used to measure in vitro protease activity was Z-Phe-Arg-AMC.

[3] = system: human malarial parasite Plasmodium falciparum; assay: as above; type: biochemical; details: cells printed in nM; read-out: P. falciparum IC50 (human)
Source text: as §1

calpain = assay: Inhibition (inactivation) of calpain, Suc-Leu-Tyr-AMC; type: biochemical; details: values marked * (or %); pH 7.5, 5 mM CaCl2, 25° C.
Experimental: The inhibitors were tested against calpain at 1 or 2% as for the other enzymes. The reaction conditions were 50 mM Tris, pH 7.5, 5 mM CaCl2, 2.5 mM DTT, assayed at 25° C. The substrate was 100 μM Suc-Leu-Tyr-AMC.

U87MG = assay: Matrigel barrier migration assay, U87MG; type: cell-based, human; set-up: dose or concentration left out as unconfirmed
Experimental: Two permanent human glioma cell lines (U87MG and U251MGn) and a well characterized low passage primary culture derived from a CB-positive glioblastoma (HF66) were used to assess the migratory behavior in the Matrigel barrier migration assay in the presence of graded concentrations of four compounds.
Using the Matrigel assay, Mu-Leu-HphVSPh, Mu-Tyr-HphVSPh, Mu-Phe-HphVSPh, and Mu-Tyr(I2)-HphVSPh (all at 10 mM) inhibited U251MGn by 67, 56, 29, & 20% respectively, while the U87MG cells were inhibited 53, 75, 63, & 56% respectively. The primary culture HF66 cells were inhibited only 10% by these compounds at the same concentration.

Cloned cathepsin S = target: T2, Cloned cathepsin S (Homo sapiens, UniProt P25774); assay: Inhibition of cathepsin S, Z-Val-Val-Arg-AMC fluorescence progress curves; type: biochemical; details: for Ki: corrected for substrate; for k/KI (kirr/KI): values without asterisk, 25° C., pH 6.5
T2 construct: made in house
T2 sequence (P25774 115-331): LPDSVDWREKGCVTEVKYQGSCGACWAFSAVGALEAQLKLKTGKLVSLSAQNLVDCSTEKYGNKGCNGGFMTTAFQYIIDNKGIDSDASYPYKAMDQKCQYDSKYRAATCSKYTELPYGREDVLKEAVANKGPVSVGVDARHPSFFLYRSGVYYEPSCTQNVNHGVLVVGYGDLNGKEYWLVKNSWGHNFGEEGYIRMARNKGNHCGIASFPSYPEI
How it was run: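 Fluorescence (380 nm excitation, 460 nm emission) was followed after adding sub-nM enzyme to pH 6.5 phosphate buffer with DTT, EDTA, Triton, 10 μM Z-VVR-AMC and 30-0.001 μM inhibitor at 25 °C. Fitted kobs values gave apparent kobs/[I]; for some, double-reciprocal plots gave kirr, KI and kirr/KI, KI corrected by 1+[S]/Km.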

P. carinii = assay: Growth of P. carinii in vitro; type: cell-based; details: 10 mM each
Experimental: Mu-Leu-HphVSPh and Mu-Phe-LysVSPh.HBr were evaluated for their effects on the growth of P. carinii in vitro, according to the procedure of M. S. Bartlett et al. [Antimicrotubule Benzimidazoles Inhibit In Vitro Growth of P. carinii, M. S. Bartlett, T. D. Edlind, M. M. Durkin, M. M. Shaw, S. F. Queener, and J. W. Smith, (1992) Antimicrobial Agents and Chemotherapy, 36, 779-782; Antimicrobial susceptibility of P. carinii in culture, M. S. Bartlett, R. Eichholtz, and J. W. Smith (1985) Diagn. Microbiol. Infect. Dis.; 3, 381-387. Mu-Leu-HphVSPh and Mu-Phe-LysVSPh.HBr (10 mM each) inhibited the growth of P. carinii 64% and 50% respectively.

T. cruzi = T. cruzi infected irradiated J774 cells; type: cell-based; set-up: dose or concentration left out as unconfirmed; details: thereafter without inhibitor; compounds listed in decreasing order of effectiveness
Experimental: Irradiated J774 cells were infected with T. cruzi and simultaneously treated with […] of peptidyl vinyl derivatives for 5 days; thereafter without inhibitor. The following compounds were effective in decreasing order: Mu-Phe-ArgVSPh, Boc-Tyr(I2)-HphVSPh, Mu-Phe-VaIVSPh, Boc-Tic-HphVSPh, Mu-Phe-Ser(OBzl)VSPh, Mu-Leu-HphVSPh, Mu-Tyr(I2)-HphVSPh, Mu-Phe-LysVSPh, Mu-Tic-HphVSPh.

kirr [1]	Ki [1]	Ki ([1]; listed as Mu-Phe-Hph-VSPh)	kirr ([1]; listed as Mu-Phe-Hph-VSPh)	kobs /[I]* (approximate second-order inactivation constant) [1]	k/KI (kirr/KI) [1]	k/KI (kirr/KI) ([1]; listed as Mu-Phe-Hph-VSPh)	IC50 [2]	IC50 [3]	kirr (Cloned cathepsin S)	Ki (Cloned cathepsin S)	Ki (Cloned cathepsin S; listed as Mu-Phe-Hph-VSPh)	kirr (Cloned cathepsin S; listed as Mu-Phe-Hph-VSPh)	k/KI (kirr/KI) (Cloned cathepsin S)	k/KI (kirr/KI) (Cloned cathepsin S; listed as Mu-Phe-Hph-VSPh)	Structure (SMILES)	kobs /[I]* (calpain)	inhibition of U87MG migration (U87MG)	inhibition of the growth of P. carinii (P. carinii)	effectiveness against T. cruzi in J774 cells (T. cruzi)
0.24 s⁻¹	1000 nM	1100 nM	0.23 s⁻¹	260,000 M^-1 sec^-1	224,000 M^-1 sec^-1	201,000 M^-1 sec^-1	50 nM	80 nM	0.085 s⁻¹	11 nM	23 nM	0.15 s⁻¹	7,700,000 M^-1 sec^-1	6,500,000 M^-1 sec^-1	O=C(N[C@H](/C=C/S(=O)(=O)c1ccccc1)CCc1ccccc1)C(Cc1ccccc1)NC(=O)N1CCOCC1 (stereo partly drawn) [Mu-Phe-HphVSPh, (S)-(E)-3-(4-morpholinecarbonyl-phenylalanyl)amino-5-phenyl-1-phenylsulfonyl-1-pentene]	< 50 M⁻¹ s⁻¹	63%		
0.40 s⁻¹	810 nM			28,700 M^-1 sec^-1	490,000 M^-1 sec^-1		200 nM	3 nM	0.16 s⁻¹	5.9 nM			26,300,000 M^-1 sec^-1		CC(C)C[C@H](NC(=O)N1CCOCC1)C(=O)N[C@H](/C=C/S(=O)(=O)c1ccccc1)CCc1ccccc1 [Mu-Leu-HphVSPh, (S)-(E)-3-(4-morpholinecarbonylleucyl)amino-5-phenyl-1-phenylsulfonyl-1-pentene]		53%	64%	effective
